Earlier results in the CATMoS acute toxicity set (Mansouri et al. 2021).
“And” between values parts separate entries of the source, which are not always exact repeats. Equal entries are not always repeated.

Test: rat acute oral toxicity
Details: in vivo
Excerpt: […]The data set underlying the modeling effort for this project was initially compiled by NICEATM and U.S. EPA’s CCTE. Briefly, LD50 data were collected from rat acute oral systemic toxicity tests, including limit tests, ranges/confidence intervals, and discrete LD50 values. The full data set included 21,200 LD50 entries for 15,688 substances. […] Data were reviewed to ensure that LD50 values with obvious errors in the extracted data such as unit conversion errors (e.g., comma and decimal separator misplacements) were either fixed or removed. After this review, 16,209 LD50 values remained. Many of the chemicals represented had multiple LD50 entries, requiring that a single representative value per Chemical Abstracts Service Registry Number (CASRN) identifier be defined to facilitate modeling efforts. Based on ATWG feedback and to define the representative LD50 as a protective value while accounting for the distribution across multiple LD50s, the median of the lowest quartile was computed using only discrete LD50 values (omitting limit test data and range and confidence interval data). A detailed summary of the data compilation is available online on the NICEATM webpage dedicated to the collaborative modeling project (NTP 2020).
[…][…] For categorical designations, limit test and range/confidence interval LD50 data were integrated wherever possible. As such, the number of chemicals with end point values/calls varies across the modeling end points (Table 3) based on whether chemicals had representative LD50 values and/or other data. If a chemical had both, the representative value was used to determine categorical calls rather than limit test data. Some data were useable only for certain end points and categories depending on the thresholds. For example, ranges that spanned multiple hazard categories were considered only for the binary (very toxic/nontoxic) end points and omitted from rendering a determination for hazard category assignment.
[…]The final data set comprising 11,992 chemicals was split into training and evaluation sets […], respectively. This process was performed semirandomly by ordering chemicals based on the five end points (categorical and continuous LD50 values) and partitioning every fourth record into the evaluation set accordingly. This approach was taken to ensure an equivalent distribution of the LD50 values and the different hazard categories between the training and the evaluation sets without supervised sampling of the chemicals based on structures (Figure 1A). The sources of the chemical structures were also kept equivalent between the two sets, with chemical structures obtained from DSSTox, being the highest quality, representing over 75% of each set (Figure 1B).

Compound | LD50
CC(C)CCCCCCCCCCOC(=O)c1ccccc1C(=O)OCCCCCCCCCCC(C)C | 31400 mg/kg
CN(C)P(=O)(OC=C(Cl)Cl)c1ccc(Cl)cc1 (stereo not drawn) | 500 mg/kg
CCC1(C)C(=O)N(CC2CO2)C(=O)N1CC1CO1 (stereo not drawn) | 250 mg/kg
CCNc1nc(Cl)nc(N(CC)CC)n1 | 594 mg/kg
CCOC(C(=O)O)(c1ccccc1)c1ccccc1 | 1000 mg/kg
CCCCC(CC)COC(=O)COc1cc(Cl)c(Cl)cc1Cl (stereo not drawn) | 500 mg/kg
CCOP(=O)(OCC)OC(=C(Cl)Cl)c1ccc(Cl)cc1Cl | 30.2 mg/kg
CCCCCCCCOC(C[n+]1ccccc1)c1ccc(C2CCCC2)cc1 (stereo not drawn) | 250 mg/kg
NC1=NCC2c3ccccc3Cc3ccccc3N12 (stereo not drawn) | 192 mg/kg
CN(C)C(=O)c1nc(CNC(=O)CN)n(-c2ccc(Cl)cc2C(=O)c2ccccc2Cl)n1 | 680 mg/kg
c1cncc(C2CCCCN2)c1 (stereo not drawn) | 210 mg/kg and 235 mg/kg
CCOC(=O)c1c(C)cc2nc(COC(=O)NC)n(-c3ccccc3Cl)c(=O)c2c1C | 2500 mg/kg
O=c1[nH]nc(-c2ccccc2)c2conc12 | 1000 mg/kg
Cn1c(=O)on(-c2ccc(Cl)c(Cl)c2)c1=O | 777 mg/kg
COP(=S)(OC)Oc1ccc([N+](=O)[O-])c(C(F)(F)F)c1 | 250 mg/kg
CC(=O)OC1CCCCC1 | 6730 mg/kg
CC(C)OC(=O)c1ccccc1 | 3730 mg/kg
CC(C)(C)c1ccc2cc(C(C)(C)C)c(S(=O)(=O)O)cc2c1 | 4240 mg/kg
CCN(CC)C(=O)N[C@H]1C[C@@H]2c3cccc4[nH]cc(c34)C[C@H]2N(C)C1 | 100 mg/kg
CCN(CC)CC#CC(C)(C)OC(=O)C(O)(c1ccccc1)C1CCCCC1 (stereo not drawn) | 735 mg/kg
COc1ccc([N+](=O)[O-])cc1 | 2300 mg/kg

Compound | LD50
Cc1c(Cl)cc(-c2ccc(O)nn2)cc1Cl | 12000 mg/kg
CCNC(=O)OCCSCSP(=S)(OC)OC(C)C (stereo not drawn) | 8.5 mg/kg
OCCN(CCO)c1ccccc1 | 980 mg/kg
COc1cc(S(C)=O)ccc1-c1nc2ccncc2[nH]1 (stereo not drawn) | 132 mg/kg
NC(Cc1ccc(Oc2ccc(N(CCCl)CCCl)cc2)cc1)C(=O)O (stereo not drawn) | 620 mg/kg
Cc1ccc(C(N)=O)cc1N | 1730 mg/kg
CCOP(=S)(CCl)Sc1ccc(C)cc1 (stereo not drawn) | 336 mg/kg
COc1ccc(CN2CCN(C(c3ccc(F)cc3)c3ccc(F)cc3)CC2)c(OC)c1OC | 307 mg/kg
Fc1ccc(Br)c(F)c1 | 300 mg/kg
Cc1cc(O)ccc1S(C)(=O)=O | 7000 mg/kg
Clc1ccc(OCC2=NCCN2)cc1Cl | 100 mg/kg
COc1ccccc1OCCOC(=O)c1ccccc1OC(C)=O | 2930 mg/kg
N/C(CNc1ccc(Cl)c(Cl)c1)=N/O | 245 mg/kg
COC(=O)c1ccc(NC(C)=O)o1 | 1200 mg/kg
CCOP(=O)(OCC)SC(C)C | 179 mg/kg
CCC(COCC1CO1)(COCC1CO1)COCC1CO1 (stereo not drawn) | 3400 mg/kg
Cc1nn(C)c2c1NCc1ccccc1O2 | 1360 mg/kg
O=c1[nH]c(=O)n([C@H]2C[C@H](O)[C@@H](CO)O2)cc1F | 215 mg/kg
CN(C)CCN1C(=O)c2ccccc2Nc2cc(Cl)ccc21 | 242 mg/kg
C=C(C#N)C(=O)OC | 1600 mg/kg
O=Cc1ccc([N+](=O)[O-])cc1 | 4700 mg/kg

Compound | LD50
CCCNNc1ccccc1 | 13 mg/kg
C=Cc1ccccn1 | 100 mg/kg
O=[N+]([O-])c1ccccc1O | 334 mg/kg
CC(C)NCC(O)COc1cccc2[nH]ccc12 (stereo not drawn) | 263 mg/kg
CNC(=O)Oc1c(C(C)C)ccc(C)c1N(C)C | 67 mg/kg
CCCCCCCC[N+](CC)(CC)CCOC(=O)C(C1CCCC1)C1CCCC1 | 1200 mg/kg
CC(COCCN)COCCCN (stereo not drawn) | 242 mg/kg
CCCCOCCC#N | 7460 mg/kg
C#CCOC(=O)/C=C(C)/C=C/CC(C)CCCC(C)C (stereo not drawn) | 4900 mg/kg
CCC1OCCSC1=NOC(=O)NC (stereo not drawn) | 19 mg/kg
C[C@@H]1CC[C@H]2[C@@H](C)C(=O)O[C@@H]3O[C@@]4(C)CC[C@@H]1[C@]32OO4 | 5580 mg/kg
[N-]=[N+]=CC(=O)OC[C@H](N)C(=O)O | 170 mg/kg
CC(C)(C)NCC(O)c1cc(Cl)c(N)c(C(F)(F)F)c1 (stereo not drawn) | 306 mg/kg
Cc1ccc(C(C)C)cc1O | 810 mg/kg
Cc1cccc(C)c1N/N=C(/N)N(C)C | 980 mg/kg
CCCSc1nc(Cl)c([N+](=O)[O-])c(Cl)n1 | 300 mg/kg
CCCC(Cc1ccccc1)N1CCCC1 (stereo not drawn) | 278 mg/kg and 157 mg/kg
CC1N(c2ccccc2)C(=O)c2ccccc2N1C(=O)CN1CCOCC1 (stereo not drawn) | 1710 mg/kg
COP(=S)(OC)SC1CCSc2ccc(Cl)cc21 (stereo not drawn) | 200 mg/kg
Oc1nc(O)nc(O)n1 | 7700 mg/kg
CC(NNC(=O)c1ccccc1)c1ccccc1 (stereo not drawn) | 675 mg/kg
